{"source": "patent US20240358717A1", "about": "“APPLICATION OF B-ECDYSTERONE IN PREPARATION OF MEDICINE FOR URIC ACID-LOWERING AND HYPERURICEMIC KIDNEY INJURY” (Institute of Chinese Materia Medica, China Academy of …, priority 2023, published 2024)", "assay_type_in_all_cases": "in vivo, SD rats", "key": {"rats with hyperuricemia [1]": {"system": "rats with hyperuricemia", "test": "Kidney function biochemical indicators (serum BUN and SCr) in rats with hyperuricemia", "details": "for BUN / SCr: serum, mean±SD", "excerpt": "The establishment of the model as well as the experimental grouping and administration were the same as in Example 1.\n1.1 Kidney function biochemical indicators detection: the method of blood sampling and serum collection was the same as in Example 1, and an Automatic Chemical Analysis was used to detect the content of serum creatinine (SCr) by using the creatine oxidase method, and to detect the content of blood urea nitrogen (BUN) by using the urease method and the kinetic method. the effect of β-ecdysterone on the level of blood BUN and SCr of rats with hyperuricemia is shown in Table 2."}, "rats with hyperuricemia [2]": {"system": "rats with hyperuricemia", "test": "Pathological examination of rat kidney tissue (HE staining)", "details": "for pathology of kidney tissues: HE staining; for protective effect on kidney injury combined with hyperuricemia: overall conclusion from hexamine silver staining, biochemical and pathological results", "procedure": "(§1) The establishment of the model as well as the experimental grouping and administration were the same as in Example 1. 1.2 Pathological examination of kidney tissue: anesthetize rats, dissect, and remove kidney tissue. The kidney tissues were fixed with 10% neutral formalin. After sufficient fixation, sampling, gradient dehydration, xylene transparency, paraffin embedding, and preparation of 3 μm paraffin sections were performed according to routine procedures. The kidney tissue lesions as well as urate deposition in the kidney tissues were examined by light microscopy using, HE (hematoxylin & eosin) staining and hexamine silver staining, respectively. […] Among them, A in FIG. 1 and FIG. 2 is the control group, B is the model group, C and D are both β-ecdysterone underdose group, E is β-ecdysterone low dose group, F is β-ecdysterone medium dose group, G is β-ecdysterone high dose group, H is β-ecdysterone overdose group, I is allopurinol group, and J is benzbromarone group. The length unit in the lower right corner of the figure is 50 μm."}, "rats with hyperuricemia [3]": {"system": "rats with hyperuricemia", "test": "Urate deposition in rat kidney tissues (hexamine silver staining)", "procedure": "as §1"}, "rats with hyperuricemia [4]": {"system": "rats with hyperuricemia", "test": "Effect on blood uric acid level in rats with hyperuricemia (adenine combined with ethambutol model)", "details": "for Blood uric acid: serum, 16 h fasting after last administration, mean±SD; for Uric acid reduction Percentage: versus model group", "procedure": "There were 80 Male SPF grade SD rats, weighing 200-220 g, were purchased from Beijing Vital River Laboratory Animal Technology Co., Ltd., license No. SCXK (Beijing) 2016-0006. The animals were housed in a barrier environment animal laboratory, with automatic temperature control (temperature 20-26° C.), relative humidity 40-70%, and full fresh air. Artificial light was adopted with a 12-hour light-dark cycle. Group experiments were started after 1 day of acclimatization. Animals were fed with standard rat pellet feed, provided by Beijing Keao Xieli Feed Co. Ltd., with purified water.\nThe rats were randomly divided into 10 groups of 8 rats each:\n(1) negative control group (control group); (2) model group; (3) β-ecdysterone underdose group-1, 6 mg/kg; (4) β-ecdysterone underdose group-2, 12 mg/kg; (5) β-ecdysterone low dose group 25 mg/kg; (6) β-ecdysterone medium dose group 50 mg/kg; (7) β-ecdysterone high dose group 100 mg/kg; (8) β-ecdysterone overdose group 200 mg/kg; (9) allopurinol group 25 mg/kg; (10) benzbromarone group 25 mg/kg.\n1.2 Establishment of Adenine Combined with Ethambutol-Induced Hyperuricemia Combined with Kidney Injury Model in Rats\nAdenine was purchased from Sigma-Aldrich (USA), and 0.5% CMC-Na (sodium carboxymethyl cellulose) solution was used to formulate a suspension at a concentration of 20 mg/mL, ready-to-use, with an administration volume of 5 mL/kg and a dosage of 100 mg/kg. Ethambutol hydrochloride tablets were purchased from Chengdu Jinhua Pharmaceutical Co., Ltd, and 0.5% CMC-Na solution was used to formulate a suspension at a concentration of 50 mg/ml, ready-to-use, with an administration volume of 5 mL/kg and a dosage of 250 mg/kg. The modeling drug adenine 100 mg/kg and ethambutol 250 mg/kg were administered by gavage in the model group and the CQ group at each dose, from day 1, and both were administered once a day for a total of 7 days, to prepare a hyperuricemia rat model. An equal amount of 0.5% CMC-Na solution was administered by gavage in the control group at the relative time.\nObservation and detection indicators: fasting for 16 hours after the last administration, blood was collected from the abdominal aorta of rats in each group, centrifuged at 3500 rpm for 15 minutes after standing, separated and collected serum, and the content of uric acid in the serum was measured using an Automatic Chemical Analysis.\nStatistical methods: data were expressed as mean±standard deviation and analyzed by one-way ANOVA. Each administration group was compared with the model group separately."}}}
{"smiles": "Oc1ncnc2[nH]ncc12", "note": "[Allopurinol, allopurinol, reference compound]", "values": [{"measurement": "BUN", "setting": "rats with hyperuricemia [1]; 25 mg/kg", "value": "12.17 ± 3.03", "unit": "mmol/L"}, {"measurement": "SCr", "setting": "rats with hyperuricemia [1]; 25 mg/kg", "value": "48.16 ± 6.95", "unit": "µmol/L"}, {"measurement": "serum BUN level compared with the model group", "setting": "rats with hyperuricemia [1]; positive drugs, 25 mg/kg", "value": "did not show significant differences"}, {"measurement": "serum SCr level compared with the model group", "setting": "rats with hyperuricemia [1]; positive drugs, 25 mg/kg", "value": "did not show significant differences"}, {"measurement": "pathology of kidney tissues", "setting": "rats with hyperuricemia [2]; 25 mg/kg", "value": "severe renal tubules dilatation, tubular wall thinning, eosinophilic degeneration, and inflammatory cell infiltration were observed"}, {"measurement": "protective effect on kidney injury combined with hyperuricemia", "setting": "rats with hyperuricemia [2]", "value": "did not have a significant protective effect"}, {"measurement": "urate crystals deposition in kidney tissue", "setting": "rats with hyperuricemia [3]; positive drugs, 25 mg/kg", "value": "significantly reduced"}, {"measurement": "Blood uric acid", "setting": "rats with hyperuricemia [4]; 25 mg/kg", "value": "109.11 ± 21.66", "unit": "µmol/L"}, {"measurement": "Uric acid reduction Percentage", "setting": "rats with hyperuricemia [4]; 25 mg/kg", "value": 48.90, "unit": "%"}]}
{"smiles": "CCc1oc2ccccc2c1C(=O)c1cc(Br)c(O)c(Br)c1", "note": "[Benzbromarone, benzbromarone, reference compound]", "values": [{"measurement": "BUN", "setting": "rats with hyperuricemia [1]; 25 mg/kg", "value": "10.91 ± 2.66", "unit": "mmol/L"}, {"measurement": "SCr", "setting": "rats with hyperuricemia [1]; 25 mg/kg", "value": "50.64 ± 7.92", "unit": "µmol/L"}, {"measurement": "serum BUN level compared with the model group", "setting": "rats with hyperuricemia [1]; positive drugs, 25 mg/kg", "value": "did not show significant differences"}, {"measurement": "serum SCr level compared with the model group", "setting": "rats with hyperuricemia [1]; positive drugs, 25 mg/kg", "value": "did not show significant differences"}, {"measurement": "pathology of kidney tissues", "setting": "rats with hyperuricemia [2]; 25 mg/kg", "value": "severe renal tubules dilatation, tubular wall thinning, eosinophilic degeneration, and inflammatory cell infiltration were observed"}, {"measurement": "protective effect on kidney injury combined with hyperuricemia", "setting": "rats with hyperuricemia [2]", "value": "did not have a significant protective effect"}, {"measurement": "urate crystals deposition in kidney tissue", "setting": "rats with hyperuricemia [3]; positive drugs, 25 mg/kg", "value": "significantly reduced"}, {"measurement": "Blood uric acid", "setting": "rats with hyperuricemia [4]; 25 mg/kg", "value": "112.53 ± 30.78", "unit": "µmol/L"}, {"measurement": "Uric acid reduction Percentage", "setting": "rats with hyperuricemia [4]; 25 mg/kg", "value": 44.37, "unit": "%"}]}
{"smiles": "CC(C)(O)CC[C@@H](O)[C@](C)(O)[C@H]1CC[C@@]2(O)C3=CC(=O)[C@@H]4C[C@@H](O)[C@@H](O)C[C@]4(C)[C@H]3CC[C@]12C", "note": "[β-ecdysterone]", "values": [{"measurement": "BUN", "setting": "rats with hyperuricemia [1]; 6 mg/kg", "value": "11.34 ± 4.11", "unit": "mmol/L"}, {"measurement": "SCr", "setting": "rats with hyperuricemia [1]; 6 mg/kg", "value": "51.72 ± 7.35", "unit": "µmol/L"}, {"measurement": "BUN", "setting": "rats with hyperuricemia [1]; 12 mg/kg", "value": "9.81 ± 3.76", "unit": "mmol/L"}, {"measurement": "SCr", "setting": "rats with hyperuricemia [1]; 12 mg/kg", "value": "47.56 ± 6.11", "unit": "µmol/L"}, {"measurement": "BUN", "setting": "rats with hyperuricemia [1]; 25 mg/kg", "value": "7.36 ± 1.71", "unit": "mmol/L"}, {"measurement": "SCr", "setting": "rats with hyperuricemia [1]; 25 mg/kg", "value": "40.73 ± 5.79", "unit": "µmol/L"}, {"measurement": "BUN", "setting": "rats with hyperuricemia [1]; 50 mg/kg", "value": "7.19 ± 1.00", "unit": "mmol/L"}, {"measurement": "SCr", "setting": "rats with hyperuricemia [1]; 50 mg/kg", "value": "41.30 ± 4.08", "unit": "µmol/L"}, {"measurement": "BUN", "setting": "rats with hyperuricemia [1]; 100 mg/kg", "value": "7.84 ± 2.04", "unit": "mmol/L"}, {"measurement": "SCr", "setting": "rats with hyperuricemia [1]; 100 mg/kg", "value": "42.15 ± 5.01", "unit": "µmol/L"}, {"measurement": "BUN", "setting": "rats with hyperuricemia [1]; 200 mg/kg", "value": "8.04 ± 3.96", "unit": "mmol/L"}, {"measurement": "SCr", "setting": "rats with hyperuricemia [1]; 200 mg/kg", "value": "44.30 ± 5.21", "unit": "µmol/L"}, {"measurement": "serum BUN level compared with the model group", "setting": "rats with hyperuricemia [1]; after administration (p<0.01)", "value": "significantly reduced"}, {"measurement": "serum SCr level compared with the model group", "setting": "rats with hyperuricemia [1]; after administration (p<0.01)", "value": "significantly reduced"}, {"measurement": "serum BUN level compared with the model group", "setting": "rats with hyperuricemia [1]; dose too high", "value": "only a slight decreasing trend"}, {"measurement": "serum SCr level compared with the model group", "setting": "rats with hyperuricemia [1]; dose too high", "value": "only a slight decreasing trend"}, {"measurement": "serum BUN level compared with the model group", "setting": "rats with hyperuricemia [1]; dose too low", "value": "no significant difference"}, {"measurement": "serum SCr level compared with the model group", "setting": "rats with hyperuricemia [1]; dose too low", "value": "no significant difference"}, {"measurement": "pathology of kidney tissues", "setting": "rats with hyperuricemia [2]; 25 mg/kg", "value": "tubular dilatation was reduced compared with that of the model group"}, {"measurement": "pathology of kidney tissues", "setting": "rats with hyperuricemia [2]; high dose group 100 mg/kg", "value": "tubular dilatation was reduced compared with that of the model group"}, {"measurement": "pathology of kidney tissues", "setting": "rats with hyperuricemia [2]; medium dose group 50 mg/kg", "value": "tubular dilatation was significantly reduced"}, {"measurement": "protective effect on kidney injury combined with hyperuricemia", "setting": "rats with hyperuricemia [2]", "value": "significant protective effect"}, {"measurement": "pathology of kidney tissues", "setting": "rats with hyperuricemia [2]; overdose group 200 mg/kg", "value": "mild tubular dilatation and tubular epithelial cell detachment, and tubular wall thinning in some of the tubules were observed locally"}, {"measurement": "pathology of kidney tissues", "setting": "rats with hyperuricemia [2]; underdose group (6 and 12 mg/kg)", "value": "severe tubular expansion, epithelial cell detachment, eosinophilic degeneration and inflammatory cell infiltration could still be observed"}, {"measurement": "urate crystals deposition in kidney tissue", "setting": "rats with hyperuricemia [3]; 50 mg/kg group", "value": "most obvious effect"}, {"measurement": "urate crystals deposition in kidney tissue", "setting": "rats with hyperuricemia [3]; after administration, versus model group", "value": "significantly reduced"}, {"measurement": "urate crystals deposition in kidney tissue", "setting": "rats with hyperuricemia [3]; lower dose", "value": "no significant reduction"}, {"measurement": "Blood uric acid", "setting": "rats with hyperuricemia [4]; 6 mg/kg", "value": "154.76 ± 38.71", "unit": "µmol/L"}, {"measurement": "Uric acid reduction Percentage", "setting": "rats with hyperuricemia [4]; 6 mg/kg", "value": 4.98, "unit": "%"}, {"measurement": "Blood uric acid", "setting": "rats with hyperuricemia [4]; 12 mg/kg", "value": "147.55 ± 39.28", "unit": "µmol/L"}, {"measurement": "Uric acid reduction Percentage", "setting": "rats with hyperuricemia [4]; 12 mg/kg", "value": 10.10, "unit": "%"}, {"measurement": "Blood uric acid", "setting": "rats with hyperuricemia [4]; 25 mg/kg", "value": "117.91 ± 43.74", "unit": "µmol/L"}, {"measurement": "Uric acid reduction Percentage", "setting": "rats with hyperuricemia [4]; 25 mg/kg", "value": 37.78, "unit": "%"}, {"measurement": "Blood uric acid", "setting": "rats with hyperuricemia [4]; 50 mg/kg", "value": "110.83 ± 25.02", "unit": "µmol/L"}, {"measurement": "Uric acid reduction Percentage", "setting": "rats with hyperuricemia [4]; 50 mg/kg", "value": 46.58, "unit": "%"}, {"measurement": "Blood uric acid", "setting": "rats with hyperuricemia [4]; 100 mg/kg", "value": "120.19 ± 68.99", "unit": "µmol/L"}, {"measurement": "Uric acid reduction Percentage", "setting": "rats with hyperuricemia [4]; 100 mg/kg", "value": 35.17, "unit": "%"}, {"measurement": "Blood uric acid", "setting": "rats with hyperuricemia [4]; 200 mg/kg", "value": "127.56 ± 61.77", "unit": "µmol/L"}, {"measurement": "Uric acid reduction Percentage", "setting": "rats with hyperuricemia [4]; 200 mg/kg", "value": 27.36, "unit": "%"}, {"measurement": "blood uric acid level compared to the model group", "setting": "rats with hyperuricemia [4]; dose too low (underdose groups)", "value": "not significantly reduced"}]}
